What was measured:
Assay in all cases: relative viability (nuclei count vs DMSO), 5 days (fraction); higher = more cells survive
BI-2536 + Phenformin = compound: CC[C@@H]1C(=O)N(C)c2cnc(Nc3ccc(C(=O)NC4CCN(C)CC4)cc3OC)nc2N1C1CCCC1 [BI-2536] + N=C(N)NC(=N)NCCc1ccccc1 [Phenformin] (partner 250 µM)
Summary of the method: (§1)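 Lung cancer cell lines were pin-tool dosed in 1536-well plates on the day after seeding, with either a lone drug or a fixed anchor-drug dose plus five library-drug doses (not always all listed) in √10 steps. Nuclei were counted on 4× images after 5 days. Relative viability is the ratio of treated-well to vehicle-well nuclei counts, with each value a median of duplicate plates.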

BI-2536 = compound: CC[C@@H]1C(=O)N(C)c2cnc(Nc3ccc(C(=O)NC4CCN(C)CC4)cc3OC)nc2N1C1CCCC1 [BI-2536]
Summary of the method: (§2)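 Viability here means nuclei in treated wells divided by nuclei in vehicle wells, reported as the median across plates. Only plates with control CV below 25% and at least one doubling passed. Lung cancer cell lines in 1536-well plates were exposed to five √10-spaced library-drug doses for 5 days and counted from 4× Hoechst images in MetaXpress.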

NPK76-II-72-1 = compound: CC1CC(=O)N(C2=CN=C(N=C2N1C3CCCC3)NC4=C(C=C(C=C4)C(=O)NC5CCN(CC5)C)OC)C [NPK76-II-72-1]
Summary of the method: as §2

[1] = compound: CC1CC(=O)N(C2=CN=C(N=C2N1C3CCCC3)NC4=C(C=C(C=C4)C(=O)NC5CCN(CC5)C)OC)C [NPK76-II-72-1] + CC1(C)CCC(c2ccc(Cl)cc2)=C(CN2CCN(c3ccc(C(=O)NS(=O)(=O)c4ccc(N[C@H](CCN5CCOCC5)CSc5ccccc5)c(S(=O)(=O)C(F)(F)F)c4)cc3)CC2)C1 [Navitoclax] (partner 0.5 µM)
Summary of the method: as §1

Cell Line	relative viability (BI-2536 + Phenformin; first compound 0.01 µM)	relative viability (BI-2536 + Phenformin; first compound 0.03162 µM)	relative viability (BI-2536 + Phenformin; first compound 0.1 µM)	relative viability (BI-2536 + Phenformin; first compound 0.3162 µM)	relative viability (BI-2536 + Phenformin; first compound 1 µM)	relative viability (BI-2536; 0.01 µM)	relative viability (BI-2536; 0.03162 µM)	relative viability (BI-2536; 0.1 µM)	relative viability (BI-2536; 0.3162 µM)	relative viability (BI-2536; 1 µM)	relative viability (NPK76-II-72-1; 0.01 µM)	relative viability (NPK76-II-72-1; 0.03162 µM)	relative viability (NPK76-II-72-1; 0.1 µM)	relative viability (NPK76-II-72-1; 0.3162 µM)	relative viability (NPK76-II-72-1; 1 µM)	relative viability ([1]; first compound 0.01 µM)	relative viability ([1]; first compound 0.03162 µM)	relative viability ([1]; first compound 0.1 µM)	relative viability ([1]; first compound 0.3162 µM)	relative viability ([1]; first compound 1 µM)
NCI-H522	0.525	0.641	0.404	0.446	0.401	0.862	0.969	0.639	0.374	0.332	0.922	0.821	0.892	0.929	1.1	–	–	–	–	–
HCC-15	0.474	0.485	0.149	0.103	0.108	1.04	0.925	0.466	0.15	0.146	0.939	1.1	0.988	0.93	1.01	0.692	0.739	0.662	0.686	0.804
A-427	0.35	0.273	0.151	0.0945	0.134	0.996	0.961	0.589	0.137	0.151	0.943	1.07	0.984	0.929	0.977	1.01	0.941	0.92	1.05	0.96
NCI-H2228	0.328	0.214	0.129	0.106	0.102	0.972	0.991	0.279	0.142	0.228	0.945	0.974	1.08	0.883	1.06	0.509	1.06	1.14	0.794	0.932
NCI-H1734	0.393	0.24	0.159	0.151	0.167	1.01	0.725	0.234	0.199	0.211	0.926	1.03	1	0.967	1.1	0.861	0.896	0.823	0.766	0.866
PC-14	0.651	0.551	0.224	0.0459	0.0271	0.998	0.926	0.681	0.0519	0.0481	0.94	1.05	0.992	0.997	1.04	1	1.06	1.03	0.948	1.07
NCI-H1915	0.351	0.328	0.12	0.0657	0.0862	0.977	0.932	0.544	0.0978	0.117	0.984	1.1	1	0.882	0.996	0.749	0.795	0.786	0.736	0.826
NCI-H1666	0.564	0.576	0.435	0.313	0.341	0.945	0.959	0.9	0.466	0.377	0.957	0.992	0.959	0.845	1.11	0.917	0.858	0.961	0.722	1.06
HCC-366	0.67	0.605	0.256	0.0215	0.0251	1.04	1.06	0.677	0.0316	0.0344	0.994	0.999	1	1.09	0.97	1.09	1.11	1.07	1.13	0.978
SK-MES-1	0.704	0.626	0.209	0.162	0.167	1.07	0.975	0.614	0.196	0.179	0.986	1.03	0.989	1.01	1.09	1.19	1.34	1.28	1.24	1.31
SW 1573	0.333	0.283	0.131	0.106	0.0811	1.05	0.921	0.487	0.131	0.134	0.902	1	0.988	0.956	0.969	1.03	0.973	0.812	0.948	0.988
NCI-H661	0.263	0.224	0.216	0.198	0.206	1.02	0.95	0.503	0.327	0.334	0.966	1.01	0.97	0.794	1.01	–	–	–	–	–
PC-3 [JPC-3]	0.477	0.461	0.271	0.202	0.176	1.07	0.99	0.751	0.281	0.282	1.02	1.11	0.945	1.08	1.07	0.742	0.806	0.735	0.672	0.848
NCI-H1623	0.564	0.54	0.556	0.445	0.588	0.956	0.91	0.852	0.462	0.28	0.919	0.953	0.901	0.852	0.932	–	–	–	–	–
